Results reported in PMC5260423 (Journal of Veterinary Internal Medicine, 2016).
pIC50: −log10 of the molar value.

Columns and labels:
VEGF = type: cell-based, cat
Bcl11b = type: cell-based, cat
[1] = tested on: FOSCC cell lines (SCCF1, SCCF2, SCCF3); type: cell-based, cat; settings: MTT assay
tubulin = type: cell-based, dog
[2] = tested on: canine glioblastoma J3T cells; assay: cells; type: cell-based, dog; settings: Canis lupus familiaris, 72 h, read-out: mean IC50
[3] = set-up: species or system horses (Thoroughbreds); settings: in vivo
[4] = dog, in vivo; cited from earlier work
[5] = type: in vivo, dog; settings: intravenous bolus 2 mg/kg; 2 dogs
[6] = type: in vivo, cat; settings: cats with CHF that received pimobendan; −561 in cats that did not; P = 0.045
Ixodes scapularis = type: in vivo, dog
[7] = tested on: Anaplasma phagocytophilum; type: in vivo, dog; settings: all sarolaner‐treated dogs
Borrelia burgdorferi = type: in vivo, dog; settings: single oral dose; negative antibody, PCR, and culture
[8] = in vivo; cited from earlier work
[9] = type: in vivo, dog

Cc1nc(Nc2ncc(C(=O)Nc3c(C)cccc3Cl)s2)cc(N2CCN(CCO)CC2)n1 [Dasatinib, dasatinib]
VEGF production (VEGF): suppressed VEGF production
activation (phosphorylation) of Bcl11b (Bcl11b): inhibited activation of Bcl11b
cell viability [1]: lowered cell viability

COC(=O)Nc1nc2ccc(Sc3ccccc3)cc2[nH]1 [FBZ, fenbendazole]
tubulin depolymerization versus untreated control (tubulin): increased depolymerization of tubulin
pIC50 [2]: 6.26

COc1ccc2[nH]c([S+]([O-])Cc3ncc(C)c(OC)c3C)nc2c1 (stereo not drawn) [OME, omeprazole]
gastric ulcer scores [3]: significantly decreased

N.N.[Cl][Pt][Cl] [cisplatin]
reported MST for invasive thyroid carcinoma [4]: 98 days

CCN(CC)CC(=O)Nc1c(C)cccc1C [lidocaine]
response of polymorphic ventricular tachycardia [5]: no improvement was found

COc1ccc(-c2nc3ccc(C4=NNC(=O)CC4C)cc3[nH]2)cc1 (stereo not drawn) [pimobendan]
change in NT‐proBNP concentration from admission to discharge (median) [6]: -821 pmol/L

CS(=O)(=O)CC(=O)N1CC2(C1)OCc1cc(C3=NO[C@@](c4cc(Cl)c(F)c(Cl)c4)(C(F)(F)F)C3)ccc12 [sarolaner]
percent reduction in mean live tick counts, Day 29, treated 28 days prior (Ixodes scapularis; 2 mg/kg oral): 90.9%
percent reduction in mean live tick counts, Day 30, treated 21 days prior (Ixodes scapularis; 2 mg/kg oral): 100%
percent reduction in mean live tick counts, Day 30, treated 28 days prior (Ixodes scapularis; 2 mg/kg oral): 97.1%
percent reduction in mean live tick counts, Day 33, treated 21 days prior (Ixodes scapularis; 2 mg/kg oral): 100%
percent reduction in mean live tick counts, Day 33, treated 28 days prior (Ixodes scapularis; 2 mg/kg oral): 100%
adverse reactions to treatment (Ixodes scapularis; dog, in vivo): no adverse reactions
A. phagocytophilum antibody in treated dogs [7]: negative antibody
transmission of B. burgdorferi to dogs infested 21 or 28 days after treatment (Borrelia burgdorferi): prevented transmission

Darbepoetin alfa
cats that responded, of 25 [8]: 14 cats
possible PRCA ([9]; 1/34 dogs): 2.9%
dogs with potential adverse events ([9]; dog, in vivo): 19/34
longest dosing interval at which a response was sustained ([9]; dog, in vivo): ≤ 21 days
responders (HCT of 30% achieved) ([9]; median starting dose 0.5 mcg/kg, every 7 days in 31/34 dogs): Twenty‐nine of 34 dogs were responders
median time to response ([9]; range 6 ‐ 106): 28 days
median survival following initiation of therapy ([9]; range 30 – 546): 118 days
